The values below come from patent US10759785B2, “Compounds” (ENTERPRISE THERAPEUTICS LIMITED, priority 2016, dated 2020).

Where a name gives a salt, the structure may show the parent alone. A value given as a limit tells only on which side of the number the result lay.

This series in a line: Microsomal stability (human microsomes). Format: in vitro ADME. As to conditions: 0.5 mg/mL protein, 1 mM NADPH, 37° C.; for half-life at 1 μM: pH 7.4, 1 μM test compound, read-out: Averages. Mic Half Life Human; for Averages. Mic Half Life Human: 1 μM test compound. The procedure:
Example 28—Microsomal Stability
Microsomes (rat and human) were obtained from Bioreclamation. Test compound stock solutions in DMSO (10 mM) were diluted with DMSO to 2 mM. Further dilution was completed to achieve a 100 μM stock (final concentrations; 91.5% Acetonitrile: 8.5% DMSO). Final test compound concentration in incubation was 1 μM (<0.1% DMSO). The following probe substrates were used: verapamil, propranolol, metoprolol and phenacetin (rat) at a final incubation concentration of 1 μM. Assay buffer—Solution 1: 17.4 g potassium phosphate dibasic anhydrous (K2HPO4, 0.1 M) dissolved in 1 L deionised water. Solution 2: 13.6 g potassium phosphate monobasic anhydrous (KH2PO4, 0.1 M) dissolved in 1 L deionised water. Potassium phosphate solutions 1 and 2 were combined to form a pH 7.42 solution at 37° C. pH 7.4 with 2 mM magnesium chloride. NADPH (10 mM)—diluted in deionised water. Frozen microsomes were thawed at 37° C. Microsomes were diluted in assay buffer to achieve a final protein concentration of 0.5 mg/mL and 1 mM NADPH. The following procedure was completed on a Perkin Elmer Janus robotic platform in 96 well format: The microsomal incubation plate was transferred to a heater shaker at 300 rpm and solution heated to 37° C. for 10 min pre-warm. A no co-factor control at 0 and 45 min and one replicates of each test compound was included in every assay. Microsomes were incubated at 37° C., on a shaker set at 300 rpm throughout the assay. At each timepoint (0, 5, 15, 30, 45 min) 50 μL of sample was removed from the 96-well and added to 200 μL of quench solution (acetonitrile containing 0.1% formic acid and imipramine/labetalol, 200 nM). Samples were diluted 1:1 with water using the Janus Robot and analysed by LC-MS/MS.

By half-life is commonly meant how long it takes for the measured level to halve. With `CCn1c(CNC(=O)c2nc(Br)cnc2N)[n+](CC)c2ccc(OC)cc21.O=C[O-]` [Example 2, 2-{[(3-amino-6-bromopyrazin-2-yl)formamido]methyl}-1,3-diethyl-6-methoxy-1H-1,3-benzodiazol-3-ium formate], the half-life at 1 μM came out at 0.967 h.

On to `CCn1c(CNC(=O)c2nc(Br)cnc2N)[n+](CCO)c2ccc(OC)cc21.O=C[O-]` [Example 3, 2-{[(3-amino-6-bromopyrazin-2-yl)formamido]methyl}-1-ethyl-3-(2-hydroxyethyl)-6-methoxy-1H-1,3-benzodiazol-3-ium formate], for which the half-life at 1 μM came to 1.48 h. On to `CCn1c(CNC(=O)c2nc(Br)cnc2N)[n+](CCOCCOCCO)c2ccc(OC)cc21.O=C[O-]` [Example 4, 2-{[(3-amino-6-bromopyrazin-2-yl)formamido]methyl}-1-ethyl-3-{2-[2-(2-hydroxyethoxy)ethoxy]ethyl}-6-methoxy-1H-1,3-benzodiazol-3-ium formate], for which the half-life at 1 μM stood at 1.43 h. In the case of `CCn1c(CNC(=O)c2nc(Cl)cnc2N)[n+](C)c2ccc(OC)cc21.[I-]` [Example 5, 2-{[(3-amino-6-chloropyrazin-2-yl)formamido]methyl}-1-ethyl-6-methoxy-3-methyl-1H-1,3-benzodiazol-3-ium iodide], the half-life at 1 μM amounted to 0.2 h. `CCn1c(CNC(=O)c2nc(C)cnc2N)[n+](C)c2ccc(OC)cc21.[I-]` [Example 7, 2-{[(3-amino-6-methylpyrazin-2-yl)formamido]methyl}-1-ethyl-6-methoxy-3-methyl-1H-1,3-benzodiazol-3-ium iodide]: the half-life at 1 μM worked out at 0.367 h.

On to `CCc1cnc(N)c(C(=O)NCc2n(CC)c3cc(OC)ccc3[n+]2C)n1.[I-]` [Example 8, 2-{[(3-amino-6-ethylpyrazin-2-yl)formamido]methyl}-1-ethyl-6-methoxy-3-methyl-1H-1,3-benzodiazol-3-ium iodide], for which the half-life at 1 μM is 0.383 h. Regarding `CCn1c(CNC(=O)c2nc(SC)cnc2N)[n+](C)c2ccc(OC)cc21.[I-]` [Example 9, 2-({[3-amino-6-(methylsulfanyl)pyrazin-2-yl]formamido}methyl)-1-ethyl-6-methoxy-3-methyl-1H-1,3-benzodiazol-3-ium iodide], the half-life at 1 μM amounted to 0.0833 h. With `CCn1c(CNC(=O)c2nc(Br)cnc2N)[n+](C)c2ccc(Cl)cc21.O=CO.O=C[O-]` [Example 11, 2-{[(3-amino-6-bromopyrazin-2-yl)formamido]methyl}-6-chloro-1-ethyl-3-methyl-1H-1,3-benzodiazol-3-ium formic acid formate], the “Averages. Mic Half Life Human” value was 2.3 h.

With `CCn1c(CNC(=O)c2nc(Br)cnc2N)[n+](C)c2ccc(F)cc21.O=C[O-]` [Example 12, 2-{[(3-amino-6-bromopyrazin-2-yl)formamido]methyl}-1-ethyl-6-fluoro-3-methyl-1H-1,3-benzodiazol-3-ium formate], the half-life at 1 μM was 1.85 h. Consider `CCn1c(CNC(=O)c2nc(Br)cnc2N)[n+](C)c2ccc(C(F)(F)F)cc21.[I-]` [Example 13, 2-{[(3-amino-6-bromopyrazin-2-yl)formamido]methyl}-1-ethyl-3-methyl-6-(trifluoromethyl)-1H-1,3-benzodiazol-3-ium iodide], for which the “Averages. Mic Half Life Human” value came out at 2.3 h. With `CCn1c(CNC(=O)c2nc(Br)cnc2N)[n+](C)c2ccc(OC(F)(F)F)cc21.O=C[O-]` [Example 14, 2-{[(3-amino-6-bromopyrazin-2-yl)formamido]methyl}-1-ethyl-3-methyl-6-(trifluoromethoxy)-1H-1,3-benzodiazol-3-ium formate], the “Averages. Mic Half Life Human” value came to 2.3 h. Same read-out and setting: in the case of `CCn1c(CNC(=O)c2nc(Br)cnc2N)[n+](CC)c2ccc(C(=O)OC)cc21.[I-]` [Example 15, 2-{[(3-amino-6-bromopyrazin-2-yl)formamido]methyl}-1,3-diethyl-6-(methoxycarbonyl)-1H-1,3-benzodiazol-3-ium iodide] it was 2.3 h. As to `CCn1c(CNC(=O)c2nc(Br)cnc2N)[n+](CC)c2ccc(C(=O)N[C@@H]3CCOC3=O)cc21` [Example 17, 2-{[(3-amino-6-bromopyrazin-2-yl)formamido]methyl}-1,3-diethyl-6-{[(3R)-2-oxooxolan-3-yl]carbamoyl}-1H-1,3-benzodiazol-3-ium formate], the half-life at 1 μM worked out at 2.25 h.

As to `CCn1c(CNC(=O)c2nc(Br)cnc2N)[n+](CC)c2ccc(C(=O)N[C@H]3CCOC3=O)cc21` [Example 18, 2-{[(3-amino-6-bromopyrazin-2-yl)formamido]methyl}-1,3-diethyl-6-{[(3S)-2-oxooxolan-3-yl]carbamoyl}-1H-1,3-benzodiazol-3-ium formate], the half-life at 1 μM was above 2.3 h.

As to `CCn1c(CNC(=O)c2nc(Br)cnc2N)[n+](CC)c2ccc(-c3cnn(C4CCN(C(=O)OC(C)(C)C)CC4)c3)cc21.[I-]` [Example 20, 2-{[(3-amino-6-bromopyrazin-2-yl)formamido]methyl}-6-(1-{1-[(tert-butoxy)carbonyl]piperidin-4-yl}-1H-pyrazol-4-yl)-1,3-diethyl-1H-1,3-benzodiazol-3-ium iodide], the half-life at 1 μM was above 2.3 h. As to `CCn1c(CNC(=O)c2nc(Br)cnc2N)[n+](CC)c2ccc(-c3cnn(C4CCNCC4)c3)cc21.Cl.[I-]` [Example 21, 2-{[(3-amino-6-bromopyrazin-2-yl)formamido]methyl}-1,3-diethyl-6-[1-(piperidin-4-yl)-1H-pyrazol-4-yl]-1H-1,3-benzodiazol-3-ium hydrochloride iodide], the half-life at 1 μM was 1.53 h. Consider `CCn1c(CNC(=O)c2nc(Br)cnc2N)[n+](CC)c2ccc(-c3cnn(C4CCN(C(=N)N)CC4)c3)cc21.O=CO.O=C[O-]` [Example 22, 2-{[(3-amino-6-bromopyrazin-2-yl)formamido]methyl}-6-[1-(1-carbamimidoylpiperidin-4-yl)-1H-pyrazol-4-yl]-1,3-diethyl-1H-1,3-benzodiazol-3-ium formic acid formate], for which the half-life at 1 μM was above 2.3 h.

Consider `CCn1c(CNC(=O)c2nc(Br)cnc2N)[n+](CC)c2ccc(-c3cnn(C4CCN(C[C@H](O)[C@@H](O)[C@H](O)[C@H](O)CO)CC4)c3)cc21.O=CO.[Cl-]` [Example 23, 2-{[(3-amino-6-bromopyrazin-2-yl)formamido]methyl}-1,3-diethyl-6-(1-{1-[(2S,3R,4R,5R)-2,3,4,5,6-pentahydroxyhexyl]piperidin-4-yl}-1H-pyrazol-4-yl)-1H-1,3-benzodiazol-3-ium formic acid chloride], for which the half-life at 1 μM was above 2.3 h. `CCn1c(CNC(=O)c2nc(Br)cnc2N)[n+](CC)c2ccc(OCCNC(=O)OC(C)(C)C)cc21.O=C[O-]` [Example 24, 2-{[(3-amino-6-bromopyrazin-2-yl)formamido]methyl}-6-(2-{[(tert-butoxy)carbonyl]amino}ethoxy)-1,3-diethyl-1H-1,3-benzodiazol-3-ium formate]: the half-life at 1 μM came to 0.983 h. `CCn1c(CNC(=O)c2nc(Br)cnc2N)[n+](CC)c2ccc(OCCN)cc21.Cl.[Cl-]` [Example 25, 2-{[(3-Amino-6-bromopyrazin-2-yl)formamido]methyl}-6-(2-aminoethoxy)-1,3-diethyl-1H-1,3-benzodiazol-3-ium hydrochloride chloride]: the half-life at 1 μM was above 2.3 h. With `CCn1c(CNC(=O)c2nc(C#N)cnc2N)[n+](CC)c2ccc(OC)cc21` [Example 26, 2-{[(3-amino-6-cyanopyrazin-2-yl)formamido]methyl}-1,3-diethyl-6-methoxy-1H-1,3-benzodiazol-3-ium formate], the half-life at 1 μM is above 2.3 h.
